# In ChEMBL document CHEMBL3046832, “Synthesis of some sulfonamides, disubstituted sulfonylureas or thioureas and some structurally related variants. A class of promising antitumor agents” (2007):
# Experiments:
# Format in all cases: functional
# MDA-MB-231 = assay: Cytotoxicity against Homo sapiens (human) MDA-MB-231 cells after 48 hr by SRB assay; conditions: MDA-MB-231, 48 h
# SNB-75 = assay: Cytotoxicity against Homo sapiens (human) SNB75 cells after 48 hr by SRB assay; conditions: SNB-75, 48 h
# [1] = Cytotoxicity against Homo sapiens (human) non-small cell lung cancer cells after 48 hr by SRB assay; conditions: Cancer cell lines
# A549 = assay: Cytotoxicity against Homo sapiens (human) A549 cells after 48 hr by SRB assay; conditions: A549, 48 h
# LOX IMVI = assay: Cytotoxicity against Homo sapiens (human) LOXIMVI cells after 48 hr by SRB assay
# [2] = Cytotoxicity against Homo sapiens (human) colon cancer cells after 48 hr by SRB assay; conditions: Cancer cell lines
# M14 = assay: Cytotoxicity against Homo sapiens (human) M14 cells after 48 hr by SRB assay; conditions: M14, 48 h
# OVCAR-3 = assay: Cytotoxicity against Homo sapiens (human) OVCAR3 cells after 48 hr by SRB assay; conditions: OVCAR-3, 48 h
# PC-3 = assay: Cytotoxicity against Homo sapiens (human) PC3 cells after 48 hr by SRB assay; conditions: PC-3, 48 h
# IGROV-1 = assay: Cytotoxicity against Homo sapiens (human) IGROV1 cells after 48 hr by SRB assay; conditions: IGROV-1, 48 h
# [3] = Cytotoxicity against Homo sapiens (human) prostate cancer cells after 48 hr by SRB assay; conditions: Cancer cell lines
# U-251 = assay: Cytotoxicity against Homo sapiens (human) U251 cells after 48 hr by SRB assay; conditions: U-251, 48 h
# MOLT-4 = assay: Cytotoxicity against Homo sapiens (human) MOLT4 cells after 48 hr by SRB assay; conditions: MOLT-4, 48 h
# SK-MEL-5 = assay: Cytotoxicity against Homo sapiens (human) SK-MEL-5 cells after 48 hr by SRB assay; conditions: SK-MEL-5, 48 h
# NCI-H226 = assay: Cytotoxicity against Homo sapiens (human) NCI-H226 cells after 48 hr by SRB assay; conditions: NCI-H226, 48 h
# HCT-116 = assay: Cytotoxicity against Homo sapiens (human) HCT116 cells after 48 hr by SRB assay; conditions: HCT-116, 48 h
# TK-10 = assay: Cytotoxicity against Homo sapiens (human) TK10 cells after 48 hr by SRB assay; conditions: TK-10, 48 h
# HCC 2998 = assay: Cytotoxicity against Homo sapiens (human) HCC2998 cells after 48 hr by SRB assay; conditions: HCC 2998, 48 h
# NCI-H23 = assay: Cytotoxicity against Homo sapiens (human) NCI-H23 cells after 48 hr by SRB assay; conditions: NCI-H23, 48 h
# K562 = assay: Cytotoxicity against Homo sapiens (human) K562 cells after 48 hr by SRB assay; conditions: K562, 48 h
Structure (SMILES),GI50 (MDA-MB-231),GI50 (SNB-75),GI50 [1],TGI [1],GI50 (A549),GI50 (LOX IMVI),GI50 [2],TGI [2],GI50 (M14),GI50 (OVCAR-3),GI50 (PC-3),GI50 (IGROV-1),GI50 [3],TGI [3],GI50 (U-251),GI50 (MOLT-4),GI50 (SK-MEL-5),GI50 (NCI-H226),GI50 (HCC 2998),GI50 (NCI-H23),also measured
O=C(NC(=S)NS(=O)(=O)c1ccc(N2N=C3c4ccccc4CC3C2c2cccs2)cc1)c1ccccc1 (centres undefined),22.5 µM,> 100 µM,37.9 µM,78.9 µM,20.3 µM,15.2 µM,35.5 µM,85.6 µM,21.2 µM,30.6 µM,29.7 µM,3.14 µM,29 µM,> 100 µM,20.1 µM,26.2 µM,16.9 µM,–,–,–,–
O=C1CS/C(=N\S(=O)(=O)c2ccc(N3N=C4c5ccccc5CC4C3c3cccs3)cc2)N1C(=O)c1ccccc1 (centres undefined),44.6 µM,> 100 µM,49.3 µM,85.9 µM,70.5 µM,22.7 µM,40.4 µM,79.8 µM,44.7 µM,59.2 µM,38.1 µM,28.3 µM,38.1 µM,> 100 µM,36.3 µM,22.2 µM,22.7 µM,58.5 µM,17.6 µM,25.1 µM,GI50 (HCT-116): 22 µM; GI50 (TK-10): 49.6 µM
O=S(=O)(/N=c1\scc(-c2ccccc2)n1-c1ccccc1)c1ccc(N2N=C3c4ccccc4CC3C2c2cccs2)cc1 (centres undefined),52.1 µM,> 100 µM,66.8 µM,98.2 µM,57 µM,32.4 µM,68.1 µM,96.9 µM,81.5 µM,> 100 µM,75 µM,–,87.5 µM,> 100 µM,31.2 µM,19 µM,48 µM,78.9 µM,32.8 µM,68 µM,GI50 (TK-10): 32.7 µM; GI50 (K562): > 100 µM
O=C(c1ccccc1)n1c(-c2ccccc2)cs/c1=N\S(=O)(=O)c1ccc(N2N=C3c4ccccc4CC3C2c2cccs2)cc1 (centres undefined),41.3 µM,> 100 µM,43.7 µM,83.9 µM,39.5 µM,30.7 µM,53.3 µM,90.4 µM,33 µM,55.2 µM,39.2 µM,> 100 µM,43.1 µM,> 100 µM,32 µM,30.5 µM,24.4 µM,30.1 µM,14 µM,13.1 µM,GI50 (HCT-116): 30.5 µM; GI50 (TK-10): 30.5 µM; GI50 (K562): 27.6 µM
O=C1CCS/C(=N\S(=O)(=O)c2ccc(N3N=C4c5ccccc5CC4C3c3cccs3)cc2)N1c1ccccc1 (centres undefined),52.1 µM,30.2 µM,29.6 µM,47.4 µM,14.4 µM,13.6 µM,24.1 µM,60.7 µM,15.3 µM,25.9 µM,75 µM,17.4 µM,–,–,14.4 µM,47 µM,14.1 µM,26.5 µM,17.9 µM,16.7 µM,GI50 (HCT-116): 20.3 µM; GI50 (TK-10): 32.7 µM; GI50 (K562): > 100 µM
O=C1CCS/C(=N\S(=O)(=O)c2ccc(N3N=C4c5ccccc5CC4C3c3cccs3)cc2)N1C(=O)c1ccccc1 (centres undefined),5.77 µM,> 100 µM,21.7 µM,71.4 µM,10.6 µM,7.61 µM,27.4 µM,52.6 µM,10.8 µM,27.4 µM,29.2 µM,14.5 µM,26.2 µM,> 100 µM,4.5 µM,50.4 µM,2.56 µM,15.9 µM,18.2 µM,17.2 µM,GI50 (HCT-116): 10 µM; GI50 (TK-10): 24.5 µM; GI50 (K562): 26.4 µM
O=C1CS/C(=N\S(=O)(=O)c2ccc(N3N=C4c5ccccc5CC4C3c3cccs3)cc2)N(c2ccccc2)C1 (centres undefined),21.4 µM,> 100 µM,41.2 µM,79 µM,47.2 µM,21.2 µM,37.2 µM,66.3 µM,39.1 µM,> 100 µM,45 µM,19.5 µM,37.8 µM,> 100 µM,28 µM,0.01 µM,38.2 µM,22.3 µM,20.5 µM,24.2 µM,GI50 (HCT-116): 12.5 µM; GI50 (K562): 10.3 µM
